Measurements taken from PubChem BioAssay (NCI).
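Each compound was tested at five concentrations against cells in 96-well plates for 48 hours. GI50: concentration for 50% inhibition of growth. The concentration for full growth arrest is given as TGI.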 Where a SMILES comes first, the peptide text is derived from it. [ ]: non-standard residue; d: D form. The star is where a group is joined. dTle = CC(C)(C)[C@@H](N)C(=O)O; 4Abz = Nc1ccc(C(=O)O)cc1; NHOH = ON*

How the values were obtained:
Test in all cases: inhibition of tumour cell growth, NCI panel, 48 h
MALME-3M melanoma = tested on: MALME-3M melanoma
HS 578T breast = tested on: HS 578T breast
MDA-MB-231 breast = tested on: MDA-MB-231 breast
SK-OV-3 ovarian = tested on: SK-OV-3 ovarian
SW-620 colon = tested on: SW-620 colon
OVCAR-3 ovarian = tested on: OVCAR-3 ovarian
A549 NSCLC = tested on: A549 NSCLC
T-47D breast = tested on: T-47D breast
LOX IMVI melanoma = tested on: LOX IMVI melanoma
HL-60(TB) leukemia = tested on: HL-60(TB) leukemia

| Structure (SMILES) | GI50 (MALME-3M melanoma) [µM] | TGI (MALME-3M melanoma) [µM] | GI50 (HS 578T breast) [µM] | TGI (HS 578T breast) [µM] | GI50 (MDA-MB-231 breast) [µM] | TGI (MDA-MB-231 breast) [µM] | GI50 (SK-OV-3 ovarian) [µM] | TGI (SK-OV-3 ovarian) [µM] | GI50 (SW-620 colon) [µM] | TGI (SW-620 colon) [µM] | GI50 (OVCAR-3 ovarian) [µM] | TGI (OVCAR-3 ovarian) [µM] | GI50 (A549 NSCLC) [µM] | TGI (A549 NSCLC) [µM] | GI50 (T-47D breast) [µM] | TGI (T-47D breast) [µM] | GI50 (LOX IMVI melanoma) [µM] | TGI (LOX IMVI melanoma) [µM] | TGI (HL-60(TB) leukemia) [µM] | GI50 (HL-60(TB) leukemia) [µM] |
| --- | --- | --- | --- | --- | --- | --- | --- | --- | --- | --- | --- | --- | --- | --- | --- | --- | --- | --- | --- | --- |
| NS(=O)(=O)CC1CC[CH-]CC1.[Cl-].[Cl-].[Cl-].[Cl-].[Cl-].[Sb+5].c1ccncc1 | > 100 | > 100 | > 100 | > 100 | > 100 | > 100 | > 100 | > 100 | > 100 | > 100 | > 100 | > 100 | > 100 | > 100 | > 100 | > 100 | > 100 | > 100 |  |  |
| O=C(CCn1[nH]c(=O)c(Cl)c(Cl)c1=O)NNC(=O)C[n+]1ccccc1 |  | > 100 |  |  |  |  |  | > 100 |  | > 100 |  | > 100 |  | > 100 |  |  |  | > 100 | > 100 |  |
| CCCCCCCCCNC(=O)/C=C/c1ccc(O)c(O)c1 | 13.2 | 31.4 | 0.451 | 12.9 | 13.2 | 34.7 | 19.4 | 49.5 | 3.06 | 30.4 | 5.95 | 24.3 | 33.3 | > 100 | 15 | 59.9 | 11 | 29 |  |  |
| CC(C)(C)c1ccc(OCCOCCOc2ccc(C(C)(C)C)cc2S(=O)(=O)Nc2ccc([N+](=O)[O-])cc2)c(S(=O)(=O)Nc2ccc([N+](=O)[O-])cc2)c1 |  | > 100 |  |  |  |  |  | > 100 |  | > 100 |  | > 100 |  | > 100 |  |  |  | > 100 | > 100 |  |
| CCOC(=O)C1=C(C)N(Cc2ccc(Cl)cc2Cl)C2(O)C=CC(=O)C3=C(O)c4ccccc4C(=O)C312 (stereo not drawn) |  |  | 16.1 | 96.3 | 3.96 | 12.8 | 17.4 | 91.7 | 4.74 | > 100 | 2.2 | 6 | 9.35 | > 100 | 6.83 | 39.7 | 2.75 | 16.1 |  |  |
| C[C@@H](NC(=O)[C@H](NC(=O)[C@@H]1CCCN1C(=O)CNC(=O)c1ccc(N)cc1)C(C)(C)C)C(=O)NO (H-[4Abz]GP[dTle][dA]-{NHOH}) | > 100 | > 100 | > 100 | > 100 | > 100 | > 100 | > 100 | > 100 | > 100 | > 100 | > 100 | > 100 | > 100 | > 100 | > 100 | > 100 | > 100 | > 100 |  |  |
| O=C(CC(=O)c1cccc2ccccc12)C(=O)NC1C2CC3CC(C2)CC1C3 (stereo not drawn) |  | > 100 |  |  |  |  |  | > 100 |  | > 100 |  | > 100 |  | > 100 |  |  |  | > 100 | > 100 |  |
| CCc1cc(CCC(=O)Nc2ccccc2[N+](=O)[O-])[nH]c(=S)n1 |  |  |  |  |  |  |  | > 100 |  | > 100 |  | > 100 |  | > 100 |  |  |  | > 100 | > 100 |  |
| COc1ccc2c3c(c(C(=O)c4ccccc4)oc13)CCC2 |  |  |  |  |  |  |  | > 100 |  | > 100 |  | > 100 |  | > 100 |  |  |  | > 100 | > 100 |  |
| Cc1cccc(C(C)(C)C)c1NC(=O)CCc1nc(=S)[nH][nH]1 |  | > 100 |  |  |  |  |  | > 100 |  | > 100 |  | > 100 |  | > 100 |  |  |  | > 100 | > 100 |  |
| CC(=O)O[C@H](C[C@H](C(C)C)N(C)C(=O)[C@@H](NC(=O)[C@H]1CCCN1C)C(C)C)c1nc(C(=O)N[C@@H](Cc2ccccc2)C[C@H](C)C(=O)O)c(C)s1 |  |  | < 0.00167 | > 16.7 | 0.00292 | > 16.7 | 0.00203 | > 16.7 | < 0.00167 | > 16.7 |  |  | 0.0155 | > 16.7 |  |  | < 0.00167 | > 16.7 | < 0.00167 | < 0.00167 |
| Nc1ccc(-c2cccs2)cc1NC(=O)c1ccc(CCCC(=O)Nc2ccc(C3CC3N)cc2)cc1 (stereo not drawn) | 1.06 | 3.77 | 7.93 | > 100 |  |  | 4.37 | 37.1 |  |  | 1.48 | 3.14 |  |  | 1.75 | 4.82 |  |  | > 100 | 2.54 |
| O=C(Nc1cccc(-c2ccc(Cl)c(C(F)(F)F)c2)c1)C1CCN(Cc2cccc3cccnc23)CC1 | 1.65 | 3.08 | 2.14 | 4.94 | 1.84 | 3.41 | 1.76 | 3.37 | 1.77 | 3.54 | 1.72 | 3.17 | 1.91 | 3.85 | 1.61 | 3.6 | 1.5 | 2.89 |  |  |
| N#Cc1cc(S(=O)(=O)Nc2nnc(-c3ccccc3)c(-c3ccccc3)n2)c(SCc2ccccc2)cc1Cl |  |  | 22.4 | 63.3 | 23.3 | 83.8 | 23.4 | 57.4 | 35.5 | > 100 | 15.3 | 31.5 | 22.2 | 40.7 |  |  | 16.8 | 32.8 | 44.8 | 19.9 |
| N#Cc1c(N)nc(N2CCOCC2)c(C#N)c1-c1ccccn1 | > 100 | > 100 | > 100 | > 100 |  |  | > 85.9 | > 100 | > 100 | > 100 | > 100 | > 100 | > 100 | > 100 | 48.4 | > 100 | > 100 | > 100 | > 100 | > 100 |
| Cn1c(N)nc(=O)c2c1N(C1OC(CO)C(O)C1O)CN2Cc1ccccc1 (stereo not drawn) |  | > 100 |  |  |  |  |  | > 100 |  | > 100 |  | > 100 |  | > 100 |  |  |  |  | > 100 |  |
| CC1=C(/C=C/C(C)=C/C=C/C(C)=C/C(=O)O)C(C)(C)CCC1 |  | > 75.6 |  | > 81 |  | 99.6 |  | > 100 |  | 64.2 |  | 63.9 |  | > 79.4 |  |  |  | 52.6 | 59.3 |  |
